Patent US7816523B2, “Potentiators of glutamate receptors” (Eli Lilly and Company, priority 2004, dated 2010)

Assays:
human mGlu2 receptors = target: T1, human mGlu2 receptors (Homo sapiens, UniProt Q14416); test: Potentiation of glutamate-induced increase in intracellular calcium with a mGlu2 expressing cell line (FLIPR); assay type: cell-based; details: with submaximal glutamate-site agonist (e.g. 1 μM glutamate)
T1 construct: expressed in transfected cells; host or cells: RGT cells (co-transfected with the glutamate/aspartate transporter GLAST and stably transfected with Galpha15)
Procedure: Potentiation of Glutamate-Induced Increase in Intracellular Calcium with a mGlu2 Expressing Cell Line
Cell lines expressing human mGlu2 receptors are derived as previously described (Desai, Burnett, Mayne, Schoepp, Mol. Pharmacol. 48, 648-657, 1995) and cultured in DMEM with 5% dialyzed fetal bovine serum, 1 mM glutamine, 1 mM sodium pyruvate, 50 μg/mL Geneticin G418, and 0.2 mg/mL hygromycin B. Confluent cultures are passaged weekly. These cells are referred to as RGT cells for Rat Glutamate Transporter, and have been co-transfected with the glutamate/aspartate transporter GLAST. The RGT cell line expressing the mGlu2 receptors is stably transfected with the promiscuous G-protein, Galpha15 to change the signaling pathway to the mGlu2 receptor to one that could be easily measured through release of intracellular calcium. Thus, intracellular calcium levels are monitored before and after the addition of drugs on a Fluorometric Imaging Plate Reader (i.e. FLIPR, Molecular Devices). The following buffer is used throughout as an assay buffer: 10 mM KCl, 138 mM NaCl, 5 mM Ca Cl2, 1 mM MgCl2, 4 mM Na H2PO4, 10 mM Glucose, 10 mM HEPES, pH 7.4. Cells that had been plated 48 hours prior at a density of 30-40,000 cells per well in a 96-well plate are loaded with a calcium-sensitive dye for 90 minutes at 25° C. Fluo-3 (2 mM in DMSO, Molecular Probes) are mixed with a equal volume of 10% pluronic acid in DMSO, and diluted to 8 μM into the buffer described above containing 10% fetal bovine serum to make the loading buffer. Following loading of the cells, the loading buffer is removed and replaced with assay buffer prior to drug addition and monitoring on the FLIPR. The resulting signal from the addition of compounds of formula (I) and submaximal concentrations of a glutamate-site agonist (e.g. 1 μM glutamate) is determined by taking the difference of the maximal fluorescent peak height minus the background fluorescence in each well and expressing the results as a percent of the signal seen with a maximal glutamate response (30 μM glutamate, typically about 30-50,000 Relative Fluorescent Units). Least squares curve fitting with a four-parameter equation is then applied to the resulting dose-% response curve to determine the resulting EC50 values.

human CysLT1 receptor = target: T2, human CysLT1 receptor (Homo sapiens, UniProt Q9Y271); test: Antagonism of LTD4-induced increase in intracellular calcium within a CysLT1 receptor expressing cell line (FLIPR); assay type: cell-based; details: 6 nM LTD4; read-out: antagonism of CysLT1 receptors, IC50
T2 construct: expressed in transfected cells; host or cells: AV12-664 (ATCC-9595)
T2 sequence (Q9Y271 1-337): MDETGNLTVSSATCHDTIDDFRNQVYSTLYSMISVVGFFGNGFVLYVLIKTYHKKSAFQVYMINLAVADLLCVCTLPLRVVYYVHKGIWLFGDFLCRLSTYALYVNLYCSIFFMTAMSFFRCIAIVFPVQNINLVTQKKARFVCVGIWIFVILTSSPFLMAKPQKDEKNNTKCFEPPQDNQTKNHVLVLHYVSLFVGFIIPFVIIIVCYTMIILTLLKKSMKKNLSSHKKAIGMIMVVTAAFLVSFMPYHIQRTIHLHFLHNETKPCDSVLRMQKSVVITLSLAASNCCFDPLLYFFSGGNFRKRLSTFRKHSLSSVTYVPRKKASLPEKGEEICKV
Procedure: Antagonism of Cysteinyl-leukotriene D4 (LTD4) -Induced Increase in Intracellular Calcium within a Cysteinyl-Leukotriene 1 (CysLT1) Receptor Expressing Cell Line
Cell lines expressing the human CysLT1 receptor [AV12-664 (ATCC-9595)] are derived and maintained in culture media: DMEM with 5% dialyzed fetal bovine serum, 1 mM glutamine, and 1 mM sodium pyruvate. Confluent cultures are passaged weekly. Intracellular calcium levels are monitored in the CysLT1-expressing cells with the addition of LTD4, with or without prior exposure to the compounds being tested as antagonists with a Fluorometric Imaging Plate Reader (FLIPR, Molecular Devices). The following buffer is used throughout as an assay buffer: Hanks Buffered Saline Solution without phenol red (GIBCO), with 10 mM HEPES pH 7.4. Cells that had been plated 48 hours prior at a density of 20-25,000 cells per well in a 96-well plate are loaded with a calcium-sensitive dye for 90 minutes at 25° C. Fluo-3 (2 mM in DMSO, Molecular Probes) is mixed with an equal volume of 10% pluronic acid in DMSO, and diluted to 8 μM in the buffer described above containing 10% fetal bovine serum to make the loading buffer. Following loading of the cells, the buffer is removed and replaced with assay buffer prior to drug addition and monitoring on the FLIPR for several minutes. The resulting signal from the addition of 6 nM LTD4 (provides approximately 90% of the maximal signal with 25 nM LTD4) is determined by taking the difference of the maximal fluorescent peak height minus the background fluorescence in each well and expressing the results as a percent of the signal seen without pretreatment of the test compound(s). Least squares curve fitting with a four-parameter equation is applied to the resulting dose-% inhibition curve to determine the resulting IC50 values.

T1 sequence (Q14416 19-872): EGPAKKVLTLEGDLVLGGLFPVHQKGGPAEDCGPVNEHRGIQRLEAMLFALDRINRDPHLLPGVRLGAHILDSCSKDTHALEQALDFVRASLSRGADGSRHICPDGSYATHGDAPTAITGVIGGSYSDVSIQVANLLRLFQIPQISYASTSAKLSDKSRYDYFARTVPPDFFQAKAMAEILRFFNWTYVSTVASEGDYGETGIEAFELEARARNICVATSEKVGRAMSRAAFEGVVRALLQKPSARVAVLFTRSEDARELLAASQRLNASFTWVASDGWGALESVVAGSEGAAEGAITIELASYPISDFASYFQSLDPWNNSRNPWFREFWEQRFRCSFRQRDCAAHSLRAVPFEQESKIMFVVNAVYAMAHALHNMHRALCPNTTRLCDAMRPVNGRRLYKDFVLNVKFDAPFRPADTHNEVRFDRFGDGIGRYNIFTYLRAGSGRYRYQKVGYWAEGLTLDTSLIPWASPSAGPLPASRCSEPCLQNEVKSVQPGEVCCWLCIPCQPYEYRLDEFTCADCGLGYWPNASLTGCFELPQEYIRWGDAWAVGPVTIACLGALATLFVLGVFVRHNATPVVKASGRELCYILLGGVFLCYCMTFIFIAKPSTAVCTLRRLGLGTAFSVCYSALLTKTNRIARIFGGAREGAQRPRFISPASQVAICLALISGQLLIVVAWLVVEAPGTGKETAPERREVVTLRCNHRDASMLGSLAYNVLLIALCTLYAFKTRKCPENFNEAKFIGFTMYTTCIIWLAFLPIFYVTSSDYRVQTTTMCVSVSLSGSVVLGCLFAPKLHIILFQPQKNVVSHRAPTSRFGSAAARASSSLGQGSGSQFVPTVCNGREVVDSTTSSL

Compound | EC50 (human mGlu2 receptors) | IC50 (human CysLT1 receptor) | melting point
CCCc1c(OCc2ccc(C(F)c3cccc(-c4nnn[nH]4)c3)cc2)ccc(C(C)=O)c1O (single isomer, unassigned; isomer 1) [Example 81, 1-[4-(4-{Fluoro-[3-(1H-tetrazol-5-yl)-phenyl]-methyl}-benzyloxy)-2-hydroxy-3-propyl-phenyl]-ethanone isomer 1] | < 100 nM | < 750 nM | 
CCCc1c(OCc2ccc(Cc3cccc(-c4nn[nH]n4)c3)cc2)ccc(C(C)=O)c1O [Example 60, 1-(2-hydroxy-3-propyl-4-{4-[3-(1H-tetrazol-5-yl)-benzyl]-benzyloxy}-phenyl)-ethanone] |  | < 750 nM | 
CCCc1c(OCc2ccc(C(O)c3ccc(OC)c(-c4nnn[nH]4)c3)cc2)ccc(C(C)=O)c1O (stereo not shown) [Example 47, 1-[2-hydroxy-4-(4-{hydroxy-[4-methoxy-3-(2H-tetrazol-5-yl)-phenyl]-methyl}-benzyloxy)-3-propyl-phenyl]-ethanone] | < 100 nM | < 750 nM | 
CC(=O)c1ccc(OCc2ccc(Cc3cccc(C(=O)O)c3)cc2)c(Cl)c1O [Example 65, 3-[4-(4-Acetyl-2-chloro-3-hydroxy-phenoxymethyl)-benzyl]-benzoic acid] | < 100 nM | < 750 nM | 
CCCc1c(OCc2ccc([C@H](O)c3cccc(C(=O)O)c3)cc2)ccc(C(C)=O)c1O [Example 155, 3-{[4-(4-acetyl-3-hydroxy-2-propyl-phenoxymethyl)-phenyl]-(S)-hydroxymethyl}-benzoic acid] |  |  | 198.35 °C
CCCc1c(OCc2ccc(C(O)c3cccc(C(=O)O)c3)cc2)ccc(C(C)=O)c1O (single isomer, unassigned; isomer 1) [Example 83, (+)-3-{[4-(4-Acetyl-3-hydroxy-2-propyl-phenoxymethyl)-phenyl]-hydroxy-methyl}-benzoic acid isomer 1] | < 100 nM | < 750 nM | 
